Reference: paper PMC6334293 (Journal of medicinal chemistry, 2018)

Legend:
[1] = target: BCL6^BTB LG; conditions: read-out: KD (MST); microscale thermophoresis; cited from earlier work
[2] = target: T1, BCL6^BTB (Homo sapiens, UniProt P41182, C67R/C84N/E99V)
[3] = test system: BCL6-dependent and BCL6-independent lymphoma cells; assay: Differential cell killing assays, panel statements; format: cell-based, human
[4] = test system: Ly1B50; assay: Growth inhibition; format: cell-based; conditions: Homo sapiens, 48 h, read-out: GI50 BCL6 independent cell Ly1B50
[5] = test system: SUDHL6; assay: Growth inhibition; format: cell-based, human
[6] = target: T1, BCL6^BTB; conditions: NMR KD
[7] = target: T2, MIZ1 (Homo sapiens, UniProt Q13105); assay: Protein-observed NMR binding to MIZ1 BTB; conditions: Figure S8
T2 sequence (Q13105 1-115): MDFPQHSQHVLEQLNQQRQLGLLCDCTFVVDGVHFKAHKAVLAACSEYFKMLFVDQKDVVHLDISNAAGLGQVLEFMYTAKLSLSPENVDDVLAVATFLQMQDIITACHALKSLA

[8] = target: LRF (Homo sapiens, UniProt O95365); conditions: Figure S8
[9] = test system: OCI-Ly7; assay: Growth inhibition; format: cell-based, human
[10] = target: KAISO (Homo sapiens, UniProt Q86T24); conditions: Figure S8
Sequence of KAISO (Q86T24 1-122, species assumed): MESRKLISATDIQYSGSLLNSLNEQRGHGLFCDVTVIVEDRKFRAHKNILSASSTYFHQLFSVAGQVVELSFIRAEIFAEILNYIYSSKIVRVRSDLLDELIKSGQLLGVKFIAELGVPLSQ

Sequence of LRF (O95365 1-130): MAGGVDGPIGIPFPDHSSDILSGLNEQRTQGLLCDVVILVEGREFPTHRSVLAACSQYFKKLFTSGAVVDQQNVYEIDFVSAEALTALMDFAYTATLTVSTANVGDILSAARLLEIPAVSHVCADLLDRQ

O=C(O)CC(C(=O)O)N1C(=O)/C(=C2/C(=O)Nc3ccc(Br)cc32)SC1=S (stereo not drawn) [79–6]
Kd [1]: 129 µM

CC(C)NC(=O)Cn1ccc2ccc(NC(=S)NCCc3c[nH]c4ccccc34)cc21 [Compound 7b, 2-(6-(3-(2-(1H-Indol-3-yl)ethyl)thioureido)-1H-indol-1-yl)-N-isopropylacetamide]
improvement of 6PA value compared to compound 7a [2]: 3.7 fold

O=C(O)CNC(=O)Cn1ccc2ccc(NC(=S)NCCc3c[nH]c4ccccc34)cc21 [Compound 7i, (2-(6-(3-(2-(1H-Indol-3-yl)ethyl)thioureido)-1H-indol-1-yl)acetyl)glycine]
effect on all seven lymphoma cell lines ([3]; at the concentration of 500 μM): no effect
GI50 [4]: > 500 µM

COC(=O)Cn1cc(CN2CCN(C)CC2)c2ccc(NC(=S)NCCc3c[nH]c4ccccc34)cc21 [Compound 13, Methyl 2-(6-(3-(2-(1H-indol-3-yl)ethyl)thioureido)-3-((4-methylpiperazin-1-yl)methyl)-1H-indol-1-yl)acetate]
cellular activity, SUDHL6 cells [5]: weak cellular activity
GI50 [4]: > 500 µM
6PA [2]: 363 Hz

CC(C)NC(=O)Cn1cc(CN2CCN(C)CC2)c2ccc(NC(=S)NCCc3c[nH]c4ccccc34)cc21 [Compound 15a, 2-(6-(3-(2-(1H-indol-3-yl)ethyl)thioureido)-3-((4-methylpiperazin-1-yl)methyl)-1H-indol-1-yl)-N-isopropylacetamide]
effects in the cell killing assays [3]: no effects
GI50 [4]: > 500 µM

CN1CCN(Cc2cn(CC(=O)NCC(=O)O)c3cc(NC(=S)NCCc4c[nH]c5ccccc45)ccc23)CC1 [Compound 15c, (2-(6-(3-(2-(1H-Indol-3-yl)ethyl)thioureido)-3-((4-methylpiperazin-1-yl)methyl)-1H-indol-1-yl)acetyl)glycine]
effects in the cell killing assays [3]: no effects
GI50 [4]: > 500 µM

CCN(CC)C(=O)Cn1cc(CN2CCN(C)CC2)c2ccc(NC(=S)NCCc3c[nH]c4ccccc34)cc21 [Compound 15d, 2-(6-(3-(2-(1H-Indol-3-yl)ethyl)thioureido)-3-((4-methylpiperazin-1-yl)methyl)-1H-indol-1-yl)-N,N-diethylacetamide]
6PA [2]: 390 Hz

CN1CCN(Cc2cn(CC(=O)N3CCCCC3)c3cc(NC(=S)NCCc4c[nH]c5ccccc45)ccc23)CC1 [Compound 15e, 1-(2-(1H-Indol-3-yl)ethyl)-3-(3-((4-methylpiperazin-1-yl)methyl)-1-(2-oxo-2-(piperidin-1-yl)ethyl)-1H-indol-6-yl)thiourea]
GI50 ([3]; Homo sapiens, read-out: GI50 for BCL6-dependent lymphoma cells): 33 to 103 µM
effect on all tested BCL6-independent lymphoma cells ([3]; at the concentration of 500 μM): no effect
GI50 [4]: > 500 µM

CN1CCN(Cc2cn(CC(=O)N3CCOCC3)c3cc(NC(=S)NCCc4c[nH]c5ccccc45)ccc23)CC1 [Compound 15f, 1-(2-(1H-Indol-3-yl)ethyl)-3-(3-((4-methylpiperazin-1-yl)methyl)-1-(2-morpholino-2-oxoethyl)-1H-indol-6-yl)thiourea]
improvement of affinity over 15a [6]: 6 fold
activity to other tested BCL6-dependent lymphoma cells ([3]; other than OCI-Ly7): no obvious activity
binding to MIZ1 BTB domain [7]: no interactions
binding to LRF BTB domain [8]: no interactions
GI50 [4]: > 500 µM
cellular activity, OCI-Ly7 cells [9]: weak potency
binding to KAISO BTB domain [10]: no interactions

CC1CN(C(=O)Cn2cc(CN3CCN(C)CC3)c3ccc(NC(=S)NCCc4c[nH]c5ccccc45)cc32)CCO1 (stereo not drawn) [Compound 15g, 1-(2-(1H-Indol-3-yl)ethyl)-3-(1-(2-(2-methylmorpholino)-2-oxoethyl)-3-((4-methylpiperazin-1-yl)methyl)-1H-indol-6-yl)thiourea]
GI50 [4]: > 500 µM
cellular activity, OCI-Ly7 cells [9]: only showed activity
